Values quoted from earlier work, collected in US20220175673A1, “SURGICAL DEVICE” (Saint Anthony Biomedical, LLC, priority 2017, published 2022).

Experiments:
[1] = tested on: MDR isolates (MRSA, E. faecium, K pneumoniae, E. aerogenes, E. coli and A. baumani); details: 0.05% CHG, 1-minute exposure
[2] = tested on: Streptococcus mutans, S. pyogenes, S. salivarius, S. sanguis; details: Gram-positive aerobic bacteria
[3] = tested on: Staphylococcus aureus, S. epidermidis, S. haemolyticus, S. hominis, S. simulans; details: both oxacillin-resistant and oxacillin-susceptible staphylococci
[4] = tested on: Enterococcus, including E. faecalis and E. faecium; details: vancomycin-susceptible and vancomycin-resistant strains
[5] = tested on: Veillonella; details: compared with other anaerobic bacteria
[6] = tested on: Candida albicans, C. dubliniensis, C. glabrata, C. gullermondii, C. pseudotropicalis, C. krusei, C. lusitaniae, C. tropicalis
[7] = tested on: Epidermophyton occosum, Microsporum gypseum, M canis, Trichophyton mentagrophytes
[8] = tested on: CMV, HIV, HSV-1, HSV-2, influenza virus, parainfluenza virus, variola virus; details: viruses with a lipid component in outer coat or an outer envelope
[9] = tested on: keratinocytes
[10] = tested on: wound healing

Question: Which “log-reduction in MDR isolates” value [1] does the source give for `N=C(NCCCCCCNC(=N)NC(=N)Nc1ccc(Cl)cc1)NC(=N)Nc1ccc(Cl)cc1.O=C(O)[C@H](O)[C@@H](O)[C@H](O)[C@H](O)CO.O=C(O)[C@H](O)[C@@H](O)[C@H](O)[C@H](O)CO` [CHG, chlorhexidine gluconate] here?
Answer: greater than or equal to 99.99%

Question: With `[H]/N=C(\N/C(=N/[H])NCCCCCCNC(=N)NC(=N)Nc1ccc(Cl)cc1)Nc1ccc(Cl)cc1` [Chlorhexidine, chlorhexidine] as the compound, how does the activity [2] read?
Answer: highly active

Question: What about the activity [3] of the same compound?
Answer: active

Question: And the activity [4]?
Answer: active

Question: And the activity [5]?
Answer: less active

Question: And the activity [6]?
Answer: some activity

Question: And the activity [7]?
Answer: some activity

Question: What about the antiviral activity [8] of the same compound?
Answer: appears to have antiviral activity

Question: What about the effect on keratinocytes [9] of the same compound?
Answer: cytotoxic effect

Question: And the “effect on wound healing” value [10]?
Answer: inhibitory effect
